Values after ≈ are worked out from the molar mass of the structure shown. Read-outs that look alike come from different tables or passages of the source.
Assays:
HSV-2 (G) = experiment: HSV-2 infection of primary monocyte/macrophage (M/M) cultures; type: cell-based
HIV-1(IIIB) = experiment: Anti-HIV-1 activity in CD4+ T-lymphocyte CEM cell cultures; type: cell-based; conditions: Human immunodeficiency virus 1, CCRF-CEM, virus-induced cytopathicity
Text: (§1) Human CD4 ^+ T-lymphocyte CEM cell cultures were inoculated with HIV-1 and HIV-2 and exposed to adefovir, tenofovir, or PMEO-DAPym. […]

HSV-1 and HSV-2 strains = experiment: HSV cytopathicity assay in HEL cell cultures, HSV-1 and HSV-2 stated together; type: cell-based
Description: Figure 2 Antiherpetic activity of test compounds in cell culture. Confluent HEL cell cultures were exposed to 100 TCID50 of clinical virus isolates [wild-type HSV-1 (panel A), wild-type HSV-2 (panel B), TK^− HSV-1 (panel C) and TK^− HSV-2 (panel D)] in the presence of drugs at different concentrations and incubated for 3 days at 37°C. Then, the cytopathicity was determined microscopically and the EC50 values determined. ^aEC50, 50% effective concentration or compound concentration required to reduce virus-induced cytopathicity (CPE) by 50%. Data shown are the means of at least two independent experiments. The HSV-1, HSV-2, HSV-1 TK^−, and HSV-2 TK^− clinical isolates have been described in reference 19, including the nature of the mutations in the TK gene of the acyclovir-resistant virus strains.

CCR5 = experiment: Flow cytometry of CCR5 expression on PBMC; type: cell-based, human; conditions: for CCR5 decrease / decrease of CCR5 expression on the cell surface: 24 h; for CCR5 expression, % of control: 72 h
Description: (§2) Figure 9 Expression of CC-chemokines, CCR5 and chemokine mRNA expression in PBMC cultures after drug treatment. Panel A: Production of CC-chemokines by PBMC and the effects of adefovir, tenofovir, and PMEO-DAPym on the expression of the CCR5 receptor. Freshly isolated PBMCs from four healthy donors were incubated for 24 h with medium only (NC) or with adefovir, tenofovir, or PMEO-DAPym. We collected the supernatants and measured the concentrations of MIP-1α (▪), MIP-1β (▴), and RANTES (•) using a Bioplex system (Bio-Rad, Hercules, CA). Shown are means ± SEM. The cells were also collected, and the expression of the CCR5 receptor (□) was measured with flow cytometry using the PE-labeled CCR5 (clone 2D7) mAb; it is shown as percentage of control (± SEM) from four independent representative experiments. Panel B: Chemokine mRNA expression upon PMEO-DAPym exposure to PBMC. RT-PCR analysis of MIP-1α, MIP-1β, RANTES, and GAPDH (control) expression in PBMC treated with 100-µg/ml PMEO-DAPym for 4 h. Similar results were obtained with PBMC from three different donors. Results from one representative donor are shown.
Figure 11 Expression of the HIV-1 coreceptor CCR5 on PBMCs after treatment with adefovir, tenofovir, or PMEO-DAPym. We treated PBMC with the drugs for 24 h and collected and analyzed the cells using flow cytometry. Cell surface expression of CD4 and the chemokine receptor CCR5 were measured with the fluorescein isothiocyanate-labeled CD4 specific mAb (clone SK3) and the phycoerythrin-labeled CCR5 (clone 2D7). The percentages of positive cells in each quadrant of the dot plots are given. The data shown are from one representative experiment that was independently repeated at least four times. TEXT PRINTED IN THE PICTURE: adefovir: 54% (500 μg/ml); 7% (500 μg/ml); 6% (500 μg/ml) | tenofovir: 50% (500 μg/ml); 6% (500 μg/ml); 5% (500 μg/ml) | PMEO-DAPym: 54% (500 μg/ml); 1% (500 μg/ml); 2% (500 μg/ml); 55% (100 μg/ml); 1% (100 μg/ml); 2% (100 μg/ml); 54% (20 μg/ml); 3% (20 μg/ml); 3% (20 μg/ml) DOUBTS OF THE COPYIST ABOUT THIS PICTURE: The percentages are quadrant labels in dot plots (axes: CD4 expression, CCR5 expression). No measure is printed beside them. For each plot they are listed in the order upper left, upper right, lower right. / The Control plot (51%, 8%, 6%) is left out because it is not a substance.
PBMC were cultured in the presence of adefovir, tenofovir, and PMEO-DAPym and incubated at 37°C in a humidified, 5% CO2-controlled atmosphere. The expression of cellular activation markers was measured after 3 days of culture. Briefly, after washing the cells with PBS containing 2% FCS, we incubated them with PerCP-conjugated anti-CD4 mAb (clone SK3) in combination with PE-conjugated anti-CD25, anti-CD69, or anti-HLA-DR mAbs for 30 min at room temperature. For aspecific background staining, cells were stained in parallel with Simultest Control IgG γ1/γ2a and PerCP-conjugated mouse IgG1. Finally, the cells were washed with PBS, fixed with 1% formaldehyde solution, and analyzed with a FACSCalibur (BD Biosciences, San Jose, CA); data were acquired with CellQuest software and further analyzed with the FLOWJO software (Tree Star, San Carlos, CA). […], and PBMC were incubated with PerCP-conjugated anti-CD4 mAb (clone SK3) in combination with APC-conjugated anti-CXCR4 mAb (clone 12G5) and PE-conjugated anti-CCR5 (clone 2D7) or anti-CXCR3 (clone 1C6). To evaluate the biological effects of the β-chemokines produced by drug-treated PBMC, freshly isolated PBMC were incubated for 1 h at 37°C with supernatants collected from PBMC cultures treated with compounds for 24 h. Then, cells were incubated with PerCP-conjugated anti-CD4 mAb (clone SK3) in combination with PE-conjugated anti-CCR5 mAb (clone 2D7) for 30 min at room temperature. […]

PBMC = experiment: Bio-Plex chemokine assay in PBMC cultures; type: cell-based, human; conditions: for production of CC-chemokines: even at 500 µg/ml; for MIP-1β induced: 24 h
Description: as §2
Freshly isolated PBMC were cultured in the presence of adefovir, tenofovir, and PMEO-DAPym, and culture supernatants were collected after 24 h. We determined the cytokine production profile using the Bio-Plex 200 system (Bio-Rad, Hercules, CA) and a Bio-Plex Human chemokine assay according to the manufacturer's instructions and as described in detail earlier. The assay kit contains beads conjugated with mAbs specific for interferon-inducible protein-10 (IP-10), macrophage inflammatory protein-1α (MIP-α), and MIP-1β, and regulated on activation normal T-cell expressed and secreted (RANTES). For each chemokine, eight standards ranging from approximately 1.5 pg/ml to 32,000 pg/ml were constructed, and the minimum detectable dose was between 1.5 pg/ml and 8 pg/ml. Standard curves and the concentrations of chemokines within samples were generated with the Bio-Plex Manager 4.1 software.

HIV-2(ROD) = experiment: Anti-HIV-2 activity in CD4+ T-lymphocyte CEM cell cultures; type: cell-based; conditions: Human immunodeficiency virus 2, CCRF-CEM
Text: as §1

[1] = thirteen clinical wild-type HSV-1 and HSV-2 isolates, read-out: average EC50
[2] = wild-type laboratory HSV-1 and HSV-2 strains, range, read-out: EC50
[3] = HIV-2(ROD), CEM, virus-induced cytopathicity, read-out: EC50

| Compound | Cytopathicity (CPE) on macrophages 6 days after infection % CPE (HSV-2 (G); 0.0032 µg/ml) [%] | Cytopathicity (CPE) on macrophages 6 days after infection % CPE (HSV-2 (G); 0.4 µg/ml) [%] | Cytopathicity (CPE) on macrophages 6 days after infection % CPE (HSV-2 (G); 2 µg/ml) | EC50 (HIV-1(IIIB)) [µg/mL] | EC50 (HSV-1 and HSV-2 strains; [1]) [µg/mL] | EC50 (HSV-1 and HSV-2 strains; [2]) [µg/mL] | CCR5 decrease (CCR5) | production of CC-chemokines (PBMC) | EC50 (HIV-2(ROD); [3]) [µg/mL] | also measured |
| --- | --- | --- | --- | --- | --- | --- | --- | --- | --- | --- |
| Nc1ncnc2c1ncn2CCOCP(=O)(O)O [Adefovir, 9-(2-phosphonylmethoxyethyl)adenine] | 80 | 30 | 0–5% | 0.96 ± 0.24 (≈ 3.51 µM) | ~6 (≈ 22 µM) | 2.6 to 6.3 (≈ 9.52 to 23.1 µM) | Neither adefovir nor tenofovir induced a marked CCR5 decrease | Neither adefovir nor tenofovir induced notable production of CC-chemokines | 1.9 ± 1.1 (≈ 6.95 µM) |  |
| Nc1cc(OCCOCP(=O)(O)O)nc(N)n1 [PMEO-DAPym, 6-phosphonylmethoxyethoxy-2,4-diaminopyrimidine] | 85 | 35 | 0–15% | 0.9 ± 0.4 (≈ 3.41 µM) | ~2 (≈ 7.57 µM) | 2.6 to 6.3 (≈ 9.84 to 23.8 µM) |  |  | 0.66 ± 0.19 (≈ 2.5 µM) | EC50 (HSV-1 and HSV-2 strains; TK− HSV isolates, read-out: average EC50): 2.4 µg/mL (≈ 9.08 µM); decrease of CCR5 expression on the cell surface (CCR5; 20 µg/ml): 60%; decrease of CCR5 expression on the cell surface (CCR5; 100 µg/ml): ≥ 75%; decrease of CCR5 expression on the cell surface (CCR5; 500 µg/ml): ≥ 75%; CCR5 expression, % of control (CCR5; 20 µg/ml): 60%; CCR5 expression, % of control (CCR5; 100 µg/ml): 38%; CCR5 expression, % of control (CCR5; 500 µg/ml): 10%; effect on IP-10 levels (PBMC): did not affect IP-10 levels; MIP-1β induced (PBMC; 20 µg/ml): 7.5 ng/mL; MIP-1β induced (PBMC; 100 µg/ml): 20 ng/mL; MIP-1β induced (PBMC; 500 µg/ml): 27 ng/mL |
| C[C@H](Cn1cnc2c(N)ncnc21)OCP(=O)(O)O [Tenofovir, 9-(2-phosphonylmethoxypropyl)adenine] | 85 | 40 | 30% | 0.36 ± 0.24 (≈ 1.25 µM) | ~130 (≈ 453 µM) | 105 to 122 (≈ 366 to 425 µM) | Neither adefovir nor tenofovir induced a marked CCR5 decrease | Neither adefovir nor tenofovir induced notable production of CC-chemokines |  | EC50 (HIV-2(ROD)): 0.43 ± 0.41 µg/mL (≈ 1.5 µM) |
